System: HCV 1b_Huh-Luc/Neo-ET cell line persistently expressing a bicistronic genotype 1b replicon in Huh 7 cells
Assay: HCV replicon assay (luciferase readout)
Type: cell-based
Conditions: Hepatitis C virus, Huh-7, 72 h, read-out: Inhibition of HCV genotype 1b
Experimental: Biological activity of the compounds of the invention was determined using an HCV replicon assay. The HCV 1b_Huh-Luc/Neo-ET cell line persistently expressing a bicistronic genotype 1b replicon in Huh 7 cells was obtained from ReBLikon GMBH. This cell line was used to test compound inhibition using luciferase enzyme activity readout as a measurement of compound inhibition of replicon levels.
On Day 1 (the day after plating), each compound is added in triplicate to the cells. Plates incubated for 72 h prior to running the luciferase assay. Enzyme activity was measured using a Bright-Glo Kit (cat. number E2620) manufactured by Promega Corporation. The following equation was used to generate a percent control value for each compound. % Control=(Average Compound Value/Average Control)*100
The EC50 value was determined using GraphPad Prism and the following equation: Y=Bottom+(Top−Bottom)/(1+10^((Log IC50−X)*HillSlope))
EC50 values of compounds are determined several times in the replicon assay.
Example compounds of the disclosed invention are illustrated in Tables 1-14 attached as appendices. The tables show inhibitory activity of many of the example compounds with respect to HCV 1b. […] The tables further provide mass spectrometry results for the synthesized example compounds.

Row | SMILES | EC50 [nM]
1 | CO[C@@H](C(=O)N1CCC[C@H]1c1ncc(-c2ccc(C#Cc3ccc(-c4cnc([C@@H]5CCCN5C(=O)[C@H](OC)c5ccccc5)[nH]4)cc3)cc2)[nH]1)c1ccccc1 [Compound 172] | < 1
2 | CCN(CC)[C@@H](C(=O)N1CCC[C@H]1c1ncc(-c2ccc(C#Cc3ccc(-c4cnc([C@@H]5CCCN5C(=O)[C@@H](c5ccccc5)N(CC)CC)[nH]4)cc3)cc2)[nH]1)c1ccccc1 [Compound 173] | < 1
3 | COC(=O)N[C@@H](C(=O)N1CCC[C@H]1c1ncc(-c2ccc(C#Cc3ccc(-c4cnc([C@@H]5CCCN5C(=O)[C@@H](c5ccccc5)N(C)C)[nH]4)cc3)cc2)[nH]1)c1ccccc1 [Compound 174] | < 1
4 | CCN(CC)[C@@H](C(=O)N1CCC[C@H]1c1ncc(-c2ccc(C#Cc3ccc(-c4cnc([C@@H]5CCCN5C(=O)[C@H](NC(=O)OC)c5ccccc5)[nH]4)cc3)cc2)[nH]1)c1ccccc1 [Compound 175] | < 1
5 | COC(=O)N[C@@H](C(=O)N1CCC[C@H]1c1ncc(-c2ccc(C#Cc3ccc(-c4cnc([C@@H]5CCCN5C(=O)c5nccn5C)[nH]4)cc3)cc2)[nH]1)c1ccccc1 [Compound 176] | < 1
6 | COC(=O)N[C@@H](C(=O)N1CCC[C@H]1c1ncc(-c2ccc(C#Cc3ccc(-c4cnc([C@@H]5CCCN5C(=O)[C@H]5CCCO5)[nH]4)cc3)cc2)[nH]1)c1ccccc1 [Compound 177] | < 1
7 | COC(=O)N[C@@H](C(=O)N1CCC[C@H]1c1ncc(-c2ccc(C#Cc3ccc(-c4cnc([C@@H]5CCCN5C(=O)[C@@H](c5ccccc5)N5CCCC5)[nH]4)cc3)cc2)[nH]1)c1ccccc1 [Compound 178] | < 1
8 | COC(=O)N[C@@H](C(=O)N1CCC[C@H]1c1ncc(-c2ccc(C#Cc3ccc(-c4cnc([C@@H]5CCCN5C(=O)[C@H](OC)c5ccccc5)[nH]4)cc3)cc2)[nH]1)c1ccccc1 [Compound 179] | < 1
9 | COC(=O)N[C@H](Cc1ccccc1)C(=O)N1CCC[C@H]1c1ncc(-c2ccc(C#Cc3ccc(-c4cnc([C@@H]5CCCN5C(=O)[C@H](NC(=O)OC)c5ccccc5)[nH]4)cc3)cc2)[nH]1 [Compound 180] | < 1
10 | COC(=O)N[C@@H](C(=O)N1CCC[C@H]1c1ncc(-c2ccc(C#Cc3ccc(-c4cnc([C@@H]5CCCN5C(=O)Cc5cccnc5)[nH]4)cc3)cc2)[nH]1)c1ccccc1 [Compound 181] | < 1
11 | COC(=O)N[C@@H](C(=O)N1CCC[C@H]1c1ncc(-c2ccc(C#Cc3ccc(-c4cnc([C@@H]5CCCN5C(=O)C5CCN(C)CC5)[nH]4)cc3)cc2)[nH]1)c1ccccc1 [Compound 182] | < 1
12 | COC(=O)N[C@@H](C(=O)N1CCC[C@H]1c1ncc(-c2ccc(C#Cc3ccc(-c4cnc([C@@H]5CCCN5C(=O)c5cccnc5)[nH]4)cc3)cc2)[nH]1)c1ccccc1 [Compound 183] | < 1
13 | O=C([C@@H](c1ccccc1)N1CCOCC1)N1CCC[C@H]1c1ncc(-c2ccc(C#Cc3ccc(-c4cnc([C@@H]5CCCN5C(=O)[C@@H](c5ccccc5)N5CCOCC5)[nH]4)cc3)cc2)[nH]1 [Compound 184] | < 1
14 | COC(=O)N[C@@H](C(=O)N1CCC[C@H]1c1ncc(-c2ccc(C#Cc3ccc(-c4cnc([C@@H]5CCCN5C(=O)[C@@H](c5ccccc5)N5CCOCC5)[nH]4)cc3)cc2)[nH]1)c1ccccc1 [Compound 185] | < 1
15 | COC(=O)N[C@@H](C(=O)N1CCC[C@H]1c1ncc(-c2ccc(C#Cc3ccc(-c4cnc([C@@H]5CCCN5C(=O)[C@@H]5CCCO5)[nH]4)cc3)cc2)[nH]1)c1ccccc1 [Compound 186] | < 1
16 | COC(=O)N[C@@H](C(=O)N1CCC[C@H]1c1ncc(-c2ccc(C#Cc3ccc(-c4cnc([C@@H]5CCCN5C(=O)[C@H]5CCCN5C)[nH]4)cc3)cc2)[nH]1)c1ccccc1 [Compound 187] | < 1

Row | SMILES | EC50 [nM]
17 | COC(=O)N[C@@H](C(=O)N1CCC[C@H]1c1ncc(-c2ccc(C#Cc3ccc(-c4cnc([C@@H]5CCCN5C(=O)[C@@H](c5ccccc5)N5CCCCC5)[nH]4)cc3)cc2)[nH]1)c1ccccc1 [Compound 188] | < 1
18 | CC(C)(C)OC(=O)N[C@@H](C(=O)N1CCC[C@H]1C(=O)NCc1ccc(C#Cc2ccc(-c3cnc([C@@H]4CCCN4C(=O)[C@H](NC(=O)OC(C)(C)C)c4ccccc4)[nH]3)cc2)cc1)c1ccccc1 [Compound 189] | < 1
19 | O=C(N[C@@H](C(=O)N1CCC[C@H]1C(=O)NCc1ccc(C#Cc2ccc(-c3cnc([C@@H]4CCCN4C(=O)[C@H](NC(=O)C4CC4)c4ccccc4)[nH]3)cc2)cc1)c1ccccc1)C1CC1 [Compound 190] | < 1
20 | C[C@H](NC(=O)[C@@H]1CCCN1C(=O)[C@H](NC(=O)C1CC1)c1ccccc1)c1ccc(C#Cc2ccc(-c3cnc([C@@H]4CCCN4C(=O)[C@H](NC(=O)C4CC4)c4ccccc4)[nH]3)cc2)cc1 [Compound 191] | < 1
21 | CC(C)(C)OC(=O)N[C@@H](C(=O)N1CCC[C@H]1CNC(=O)c1ccc(C#Cc2ccc(-c3cnc([C@@H]4CCCN4C(=O)[C@H](NC(=O)OC(C)(C)C)c4ccccc4)[nH]3)cc2)cc1)c1ccccc1 [Compound 192] | 1 to 9.9
22 | O=C(NC[C@@H]1CCCN1C(=O)[C@H](NC(=O)C1CC1)c1ccccc1)c1ccc(C#Cc2ccc(-c3cnc([C@@H]4CCCN4C(=O)[C@H](NC(=O)C4CC4)c4ccccc4)[nH]3)cc2)cc1 [Compound 193] | < 1
23 | O=C([C@@H](c1ccccc1)N1CCCC1)N1CCC[C@H]1c1ncc(-c2ccc(C#Cc3ccc(-c4cnc([C@@H]5CCCN5C(=O)[C@@H](c5ccccc5)N5CCCC5)[nH]4)cc3)cc2)[nH]1 [Compound 194] | < 1
24 | COC(=O)N[C@@H](C(=O)N1CCC[C@H]1c1ncc(-c2ccc(C#Cc3ccc(-c4cnc([C@@H]5CCCN5C(=O)[C@H](NC(=O)[C@@H]5CCCO5)c5ccccc5)[nH]4)cc3)cc2)[nH]1)c1ccccc1 [Compound 195] | < 1
25 | COC(=O)N[C@@H](C(=O)N1CCC[C@H]1c1ncc(-c2ccc(C#Cc3ccc(-c4cnc([C@@H]5CCCN5C(=O)Nc5ccccc5)[nH]4)cc3)cc2)[nH]1)c1ccccc1 [Compound 196] | 1 to 9.9
26 | COC(=O)N[C@@H](C(=O)N1CCC[C@H]1c1ncc(-c2ccc(C#Cc3ccc(-c4cnc([C@@H]5CCCN5C(=O)NCc5ccccc5)[nH]4)cc3)cc2)[nH]1)c1ccccc1 [Compound 197] | < 1
27 | COC(=O)N[C@@H](C(=O)N1CCC[C@H]1c1ncc(-c2ccc(C#Cc3ccc(-c4cnc([C@@H]5CCCN5C(=O)N5CCOCC5)[nH]4)cc3)cc2)[nH]1)c1ccccc1 [Compound 198] | < 1
28 | COC(=O)N[C@@H](C(=O)N1CCC[C@H]1c1ncc(-c2ccc(C#Cc3ccc(-c4cnc([C@@H]5CCCN5C(=O)OCc5ccccc5)[nH]4)cc3)cc2)[nH]1)c1ccccc1 [Compound 200] | < 1
29 | COC(=O)N[C@@H](C(=O)N1CCC[C@H]1c1ncc(-c2ccc(C#Cc3ccc(-c4cnc([C@@H]5CCCN5C(=O)[C@H](NC(=O)[C@H]5CCCO5)c5ccccc5)[nH]4)cc3)cc2)[nH]1)c1ccccc1 [Compound 201] | < 1
30 | COC(=O)N[C@@H](C(=O)N1CCC[C@H]1c1ncc(-c2ccc(C#Cc3ccc(-c4cnc([C@@H]5CCCN5C(=O)C5CCCN5C)[nH]4)cc3)cc2)[nH]1)c1ccccc1 (stereo partly shown) [Compound 202] | < 1
31 | COC(=O)N[C@@H](C(=O)N1CCC[C@H]1c1ncc(-c2ccc(C#Cc3ccc(-c4cnc([C@@H]5CCCN5C(=O)[C@H](NC(=O)[C@@H]5CCCN5C)c5ccccc5)[nH]4)cc3)cc2)[nH]1)c1ccccc1 [Compound 203] | < 1
